Measured values from patent publication US9243270B2, “Method for producing metabolites from omeprazole using bacterial cytochrome P450, and composition for same” (priority 2012, dated 2016).
Entries after “also recorded” stand apart in the source; their conditions may differ.

Legend:
human CYP2C19 = human CYP2C19 (Homo sapiens, UniProt P33261); assay: Oxidation of omeprazole by human CYP2C19, metabolites by HPLC and LC-MS; format: in vitro ADME; settings: human CYP2C19, 100 μM omeprazole, NADPH-generating system, 37° C., 30 minutes
Method: (§1) CYP102A1 50 pmol and 100 μM substrates were put into 100 mM of a potassium phosphate buffer (pH 7.4) 0.25 me and were subjected to a typical steady state reaction. In order to initiate the reaction, an NADPH-generating system (final concentration: 10 mM glucose 6-phosphate, 0.5 mM NADP^+, and 1 IU yeast glucose 6-phosphate dehydrogenase per 1 me) was added. 20 mM omeprazole solution was prepared by DMSO, and diluted with an enzyme reaction solution so that an organic solvent has the final concentration of 1%(v/v) or less. For measuring an activity of human CYP2C19, 50 pmol P450, 100 pmol NADPH-P450 reductase (CPR), 100 pmol cytochrome b5 and 45 μM L-α-dilauroyl-sn-glycero-3-phosphocholine (DLPC) were used instead of 50 pmol CYP102A1. The reaction solution was reacted at 37 for 30 minutes, and the reaction was terminated by dichloromethane prepared in a cold state with twice amounts of ice.
(§2) The reaction mixture was centrifuged to remove the supernatant, the solvent thereof was evaporated under nitrogen gas (see Vickers et al., 1990), and the obtained mixture was analyzed by HPLC (see Piver et al., 2004). A sample (30 μl) was injected into Gemini C18 column (4.6 mm×150 mm, 5 μm, Phenomenex, Torrance, Calif.). 30% acetonitrile was used as a mobile phase.

CYP102A1 (P450 BM3) = settings: bacterial wild-type CYP102A1 and mutants, 100 μM omeprazole, NADPH-generating system
Method: as §1, §2

[1] = Total turnover number (TTN) of omeprazole oxidation by CYP102A1 enzymes, HPLC; format: biochemical, Bacillus megaterium; settings: 0.1 mM to 2 mM omeprazole, 30 minutes up to 5 hours, NADPH-generating system
Method: 30% acetonitrile was used as a mobile phase.
It could be confirmed from the results of FIG. 5 that the turnover number of the wild-type CYP102A1, 17 kinds of mutants thereof, and 6 kinds of mutant kimeras varied at a large range. In addition, the total turnover number (TTNs) (mol product/mol catalyst) of the CYP102A1 mutant was investigated. In order to measure TTNs of the CYP102A1 mutant, 0.1 mM to 2 mM omeprazole was used, and the reaction was performed with an interval from 30 minutes up to 5 hours. The production rate of the omeprazole metabolite was determined by HPLC.

Sequence of human CYP2C19 (P33261 whole entry): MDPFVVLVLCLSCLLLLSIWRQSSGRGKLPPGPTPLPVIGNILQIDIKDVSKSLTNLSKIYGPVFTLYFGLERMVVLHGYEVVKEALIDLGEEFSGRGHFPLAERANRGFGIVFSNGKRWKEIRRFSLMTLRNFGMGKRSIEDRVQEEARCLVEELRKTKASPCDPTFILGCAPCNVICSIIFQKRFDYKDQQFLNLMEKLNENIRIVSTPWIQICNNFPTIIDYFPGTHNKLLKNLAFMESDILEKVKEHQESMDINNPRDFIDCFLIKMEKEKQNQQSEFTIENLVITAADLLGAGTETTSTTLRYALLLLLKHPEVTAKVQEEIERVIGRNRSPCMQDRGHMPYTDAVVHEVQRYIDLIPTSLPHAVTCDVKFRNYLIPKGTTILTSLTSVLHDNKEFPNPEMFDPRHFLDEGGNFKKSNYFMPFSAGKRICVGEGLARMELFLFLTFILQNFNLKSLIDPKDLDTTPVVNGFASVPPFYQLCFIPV

Molecule	main metabolites produced from omeprazole (human CYP2C19)	main product produced from omeprazole (CYP102A1 (P450 BM3))	total turnover number (TTNs), activity towards omeprazole [1]
COc1ccc2[nH]c([S+]([O-])Cc3ncc(C)c(OC)c3C)nc2c1 (racemic) [omeprazole]	3′-hydroxyomeprazole and 5′-hydroxyomeprazole	5′-hydroxyomeprazole	
wild-type CYP102A1: bacterial cytochrome P450 BM3 (CYP102A1) from Bacillus megaterium, SEQ ID NO: 16 (protein) MTIKEMPQPKTFGELKNLPLLNTDKPVQALMKIADELGEIFKFEAPGRVTRYLSSQRLIKEACDESRFDKNLSQALKFVRDFAGDGLFTSWTHEKNWKKAHNILLPSFSQQAMKGYHAMMVDIAVQLVQKWERLNADEHIEVPEDMTRLTLDTIGLCGFNYRFNSFYRDQPHPFITSMVRALDEAMNKLQRANPDDPAYDENKRQFQEDIKVMNDLVDKIIADRKASGEQSDDLLTHMLNGKDPETGEPLDDENIRYQIITFLIAGHETTSGLLSFALYFLVKNPHVLQKAAEEAARVLVDPVPSYKQVKQLKYVGMVLNEALRLWPTAPAFSLYAKEDTVLGGEYPLEKGDELMVLIPQLHRDKTIWGDDVEEFRPERFENPSAIPQHAFKPFGNGQRACIGQQFALHEATLVLGMMLKHFDFEDHTNYELDIKETLTLKPEGFVVKAKSKKIPLGGIPSPSTEQSAKKVRKKAENAHNTPLLVLYGSNMGTAEGTARDLADIAMSKGFAPQVATLDSHAGNLPREGAVLIVTASYNGHPPDNAKQFVDWLDQASADEVKGVRYSVFGCGDKNWATTYQKVPAFIDETLAAKGAENIADRGEADASDDFEGTYEEWREHMWSDVAAYFNLDIENSEDNKSTLSLQFVDSAADMPLAKMHGAFSTNVVASKELQQPGSARSTRHLEIELPKEASYQEGDHLGVIPRNYEGIVNRVTARFGLDASQQIRLEAEEEKLAHLPLAKTVSVEELLQYVELQDPVTRTQLRAMAAKTVCPPHKVELEALLEKQAYKEQVLAKRLTMLELLEKYPACEMKFSEFIALLPSIRPRYYSISSSPRVDEKQASITVSVVSGEAWSGYGEYKGIASNYLAELQEGDTITCFISTPQSEFTLPKDPETPLIMVGPGTGVAPFRGFVQARKQLKEQGQSLGEAHLYFGCRSPHEDYLYQEELENAQSEGIITLHTAFSRMPNQPKTYVQHVMEQDGKKLIELLDQGAHFYICGDGSQMAPAVEATLMKSYADVHQVSEADARLWLQQLEEKGRYAKDVWAG			the activity with respect to the omeprazole was hardly shown; also recorded: hardly had an activity with respect to omeprazole
